Measured values as given in patent US8969335B2, “Benzonitrile derivatives as kinase inhibitors” (MERCK PATENT GmbH, priority 2011, dated 2015).

Tests used:
[1] = molecular target: TANK binding kinase (TBK1) (Homo sapiens (Human), UniProt Q9UHD2); test: TBK1 enzyme assay (384-well flashplate kinase assay); type: biochemical; conditions: 0.6 nM TBK1, 10 μM ATP, 30° C., 120 min
Method: Test for the Inhibition of TBK1
0.6 nM TANK binding kinase (TBK1), 800 nM biotinylated MELK-derived peptide (Biotin-Ah-Ah-[sequence]) and 10 μM ATP (spiked with 0.25 μCi of ^33P-ATP/well) are incubated at 30° C. for 120 min in a total volume of 50 μl (10 mM MOPS, 10 mM Mg acetate, 0.1 mM EGTA, 1 mM DTT, 0.02% of Brij35, 0.1% of BSA, pH 7.5) with or without test compound. The reaction is stopped with 25 μl of 200 mM EDTA. After 30 min at room temperature, the liquid is removed, and each well is washed three times with 100 μl of 0.9% sodium chloride solution. Non-specific reaction is measured in the presence of 100 nM staurosporine. The radioactivity is measured in a Topcount (PerkinElmer).

[2] = molecular target: IKKε (Homo sapiens (Human), UniProt Q14164); test: IKKε kinase assay (384-well flashplate assay); type: biochemical; conditions: 1 nM IKKε, 10 μM ATP, 30° C., 2 hours; read-out: IKKε enzyme assay IC50
IKKε, sequence (Q14164 whole entry): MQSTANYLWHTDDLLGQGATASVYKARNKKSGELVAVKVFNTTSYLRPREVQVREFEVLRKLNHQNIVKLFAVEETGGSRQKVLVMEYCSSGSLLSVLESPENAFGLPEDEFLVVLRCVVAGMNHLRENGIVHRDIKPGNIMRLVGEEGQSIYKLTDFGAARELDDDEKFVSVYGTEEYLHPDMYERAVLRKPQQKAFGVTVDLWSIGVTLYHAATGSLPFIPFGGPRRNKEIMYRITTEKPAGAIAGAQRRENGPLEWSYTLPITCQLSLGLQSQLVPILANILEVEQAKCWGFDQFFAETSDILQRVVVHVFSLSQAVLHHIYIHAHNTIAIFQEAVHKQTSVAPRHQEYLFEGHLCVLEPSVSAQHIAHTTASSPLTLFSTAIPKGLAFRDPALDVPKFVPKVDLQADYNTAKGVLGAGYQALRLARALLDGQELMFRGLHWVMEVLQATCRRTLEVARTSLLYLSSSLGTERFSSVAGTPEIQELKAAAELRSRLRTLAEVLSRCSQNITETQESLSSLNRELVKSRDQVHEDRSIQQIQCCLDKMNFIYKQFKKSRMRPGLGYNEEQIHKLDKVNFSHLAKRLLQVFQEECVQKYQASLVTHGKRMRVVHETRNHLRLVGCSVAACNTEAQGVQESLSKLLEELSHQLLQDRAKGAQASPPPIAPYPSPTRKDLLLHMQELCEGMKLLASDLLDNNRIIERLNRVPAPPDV
Method: Test for the Inhibition of IKKε
IKKε—Kinase Assay (IKKepsilon)
The kinase assay is performed as 384-well flashplate assay (for example for Topcount measurement).
1 nM IKKε, 800 nM biotinylated IκBα(19-42) peptide (Biotin-C6-C6-[…]) and 10 μM ATP (spiked with 0.3 μCi of ^33P-ATP/well) are incubated at 30° C. for 2 hours in a total volume of 50 μl (10 mM MOPS, 10 mM Mg acetate, 0.1 mM EGTA, 1 mM dithiothreitol, 0.02% of Brij35, 0.1% of BSA, 0.1% of BioStab, pH 7.5) with or without test compound. The reaction is stopped using 25 μl of 200 mM EDTA. After 30 min at room temperature, the liquid is removed, and each well is washed three times with 100 μl of 0.9% sodium chloride solution. Non-specific reaction is determined in the presence of 3 μM MSC2119074 (BX-795). The radioactivity is measured using a Topcount (PerkinElmer). The results (for example IC50 values) are calculated using program tools provided by the IT Department (for example AssayExplorer, Symyx).

TANK binding kinase (TBK1), sequence (Q9UHD2 whole entry): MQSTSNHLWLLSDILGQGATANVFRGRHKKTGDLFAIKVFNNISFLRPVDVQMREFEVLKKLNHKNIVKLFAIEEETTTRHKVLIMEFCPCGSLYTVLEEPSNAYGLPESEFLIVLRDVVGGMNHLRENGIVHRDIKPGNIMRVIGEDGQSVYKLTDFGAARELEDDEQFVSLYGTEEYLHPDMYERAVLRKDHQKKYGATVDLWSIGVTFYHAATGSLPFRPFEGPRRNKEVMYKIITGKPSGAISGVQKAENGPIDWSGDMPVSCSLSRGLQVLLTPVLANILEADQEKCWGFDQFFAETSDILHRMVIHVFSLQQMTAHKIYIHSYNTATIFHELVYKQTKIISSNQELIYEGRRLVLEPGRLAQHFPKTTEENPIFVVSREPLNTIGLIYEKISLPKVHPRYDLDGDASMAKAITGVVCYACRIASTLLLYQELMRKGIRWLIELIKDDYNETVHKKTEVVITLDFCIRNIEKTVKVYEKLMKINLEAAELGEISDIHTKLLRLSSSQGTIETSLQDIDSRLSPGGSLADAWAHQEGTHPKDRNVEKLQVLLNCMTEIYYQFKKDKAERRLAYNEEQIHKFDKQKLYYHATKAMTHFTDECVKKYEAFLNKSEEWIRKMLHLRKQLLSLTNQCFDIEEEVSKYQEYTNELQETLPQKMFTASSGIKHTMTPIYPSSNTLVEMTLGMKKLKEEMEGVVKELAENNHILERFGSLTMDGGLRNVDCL

**Q.** How did the IC50 [1] turn out when `N#Cc1cc(-c2ccnc(Nc3cncc(N4CCOCC4)n3)c2)ccc1OC1CCOCC1` [Compound A85, 5-[2-(6-morpholin-4-ylpyrazin-2-ylamino)pyridin-4-yl]-2-(tetrahydropyran-4-yloxy)benzonitrile] was run?
**A.** 330 nM

**Q.** And the IC50 [2]?
**A.** 390 nM

**Q.** How did the IC50 [1] turn out when `N#Cc1cc(-c2ccnc(Nc3cnn(CCC4CCN(C(=O)CN)CC4)c3)c2)ccc1OC1CCOCC1` [Compound A30, 5-[2-(1-{2-[1-(2-Aminoacetyl)piperidin-4-yl]ethyl}-1H-pyrazol-4-ylamino)pyridin-4-yl]-2-(tetrahydropyran-4-yloxy)benzonitrile] was run?
**A.** 42 nM

**Q.** What about the IC50 [2] of the same compound?
**A.** 45 nM

**Q.** Which results are given for `CC(=O)N1CCC(COc2ccc(-c3ccnc(Nc4cnn(C5CCNCC5)c4)c3)cc2C#N)CC1` [Compound A116, 2-(1-acetylpiperidin-4-ylmethoxy)-5-[2-(1-piperidin-4-yl-1H-pyrazol-4-ylamino)pyridin-4-yl]benzonitrile]?
**A.** IC50 [1]: 6600 nM; IC50 [2]: 190 nM

**Q.** With `N#Cc1cc(-c2ccnc(Nc3cn[nH]c3)c2)ccc1OCC1CCC1` [Compound A109, 2-cyclobutylmethoxy-5-[2-(1H-pyrazol-4-ylamino)pyridin-4-yl]benzonitrile] as the compound, how does the IC50 [1] read?
**A.** 380 nM

**Q.** And the IC50 [2]?
**A.** 140 nM

**Q.** `COCCn1cc(Nc2cc(-c3ccc(OCC4CCC4)c(C#N)c3)ccn2)cn1` [Compound A110, 2-cyclobutylmethoxy-5-{2-[1-(2-methoxyethyl)-1H-pyrazol-4-ylamino]-pyridin-4-yl}benzonitrile] was tested. Which IC50 [1] did it give?
**A.** 490 nM

**Q.** And the IC50 [2]?
**A.** 82 nM

**Q.** For `N#Cc1cc(-c2ccnc(Nc3cnn(CCN4CCOCC4)c3)n2)ccc1OC1CCOCC1` [Compound A39, 5-{2-[1-(2-Morpholin-4-ylethyl)-1H-pyrazol-4-ylamino]pyrimidin-4-yl}-2-(tetrahydropyran-4-yloxy)benzonitrile], which IC50 [1] is on record?
**A.** 16 nM

**Q.** What about the IC50 [2] of the same compound?
**A.** 25 nM

**Q.** Which results are given for `N#Cc1cc(-c2ccnc(Nc3cc(CO)ccn3)n2)ccc1OC1CCOCC1` [Compound A70, 5-[2-(4-hydroxymethylpyridin-2-ylamino)pyrimidin-4-yl]-2-(tetrahydropyran-4-yloxy)benzonitrile]?
**A.** IC50 [1]: 180 nM; IC50 [2]: 140 nM

**Q.** For `CN1CCN(c2ccnc(Nc3cc(-c4ccc(OC5CCOCC5)c(C#N)c4)ccn3)c2)CC1` [Compound A84, 5-{2-[4-(4-methylpiperazin-1-yl)pyridin-2-ylamino]pyridin-4-yl}-2-(tetrahydropyran-4-yloxy)benzonitrile], which IC50 [1] is on record?
**A.** 350 nM

**Q.** What about the IC50 [2] of the same compound?
**A.** 210 nM

**Q.** For `N#Cc1cc(-c2ccnc(Nc3cnn(C4CCNCC4)c3)c2)ccc1OC1CCOCC1` [Compound A16, 5-[2-(1-Piperidin-4-yl-1H-pyrazol-4-ylamino)pyridin-4-yl]-2-(tetrahydropyran-4-yloxy)benzonitrile], which IC50 [1] is on record?
**A.** 71 nM

**Q.** And the IC50 [2]?
**A.** 7 nM

**Q.** What does the source list for `N#Cc1cc(-c2ccnc(Nc3nccc(C4CCNCC4)n3)c2)ccc1OC1CCOCC1` [Compound A89, 5-[2-(4-piperidin-4-ylpyrimidin-2-ylamino)pyridin-4-yl]-2-(tetrahydropyran-4-yloxy)benzonitrile]?
**A.** IC50 [1]: 140 nM; IC50 [2]: 120 nM

**Q.** How did the IC50 [1] turn out when `COCCn1cc(Nc2cc(-c3ccc(OCC4CC4)c(C#N)c3)ccn2)cn1` [Compound A105, 2-cyclopropylmethoxy-5-{2-[1-(2-methoxyethyl)-1H-pyrazol-4-ylamino]-pyridin-4-yl}benzonitrile] was run?
**A.** 220 nM

**Q.** And the IC50 [2]?
**A.** 65 nM

**Q.** `N#Cc1cc(-c2ccnc(Nc3ccc(C4CCOCC4)nn3)c2)ccc1OC1CCOCC1` [Compound A100, 2-(tetrahydropyran-4-yloxy)-5-{2-[6-(tetrahydropyran-4-yl)pyridazin-3-yl-amino]pyridin-4-yl}benzonitrile] was tested. Which IC50 [1] did it give?
**A.** 14 nM

**Q.** And the IC50 [2]?
**A.** 39 nM

**Q.** Which IC50 [1] does the source give for `CC(=O)N1CCC(COc2ccc(-c3ccnc(Nc4ccc(CO)cn4)c3)cc2C#N)CC1` [Compound A115, 2-(1-acetylpiperidin-4-ylmethoxy)-5-[2-(5-hydroxymethylpyridin-2-ylamino)pyridin-4-yl]benzonitrile] here?
**A.** 1500 nM

**Q.** What about the IC50 [2] of the same compound?
**A.** 1100 nM

**Q.** Which IC50 [1] does the source give for `N#Cc1cc(-c2ccnc(Nc3cnn(C4CNC4)c3)c2)ccc1OC1CCOCC1` [Compound A25, 5-[2-(1-Azetidin-3-yl-1H-pyrazol-4-ylamino)pyridin-4-yl]-2-(tetrahydropyran-4-yloxy)benzonitrile] here?
**A.** 290 nM

**Q.** What about the IC50 [2] of the same compound?
**A.** 67 nM

**Q.** For `N#Cc1cc(-c2ccnc(Nc3ccc4oc(C(N)=O)cc4c3)c2)ccc1OC1CCOCC1` [Compound A19, 5-{4-[3-Cyano-4-(tetrahydropyran-4-yloxy)phenyl]pyridin-2-ylamino}benzofuran-2-carboxamide], which IC50 [1] is on record?
**A.** 1900 nM

**Q.** And the IC50 [2]?
**A.** 390 nM

**Q.** What does the source list for `N#Cc1cc(-c2ccnc(Nc3cnn(CC(F)F)c3)n2)ccc1OC1CCOCC1` [Compound A44, 5-{2-[1-(2,2-Difluoroethyl)-1H-pyrazol-4-ylamino]pyrimidin-4-yl}-2-(tetrahydropyran-4-yloxy)benzonitrile]?
**A.** IC50 [1]: 5 nM; IC50 [2]: 10 nM

**Q.** What does the source list for `N#Cc1cc(-c2ccnc(Nc3cnn(C[C@H]4C[C@@H]4CO)c3)c2)ccc1OC1CCOCC1` [Compound A26, 5-{2-[1-((1S,2S)-2-Hydroxymethylcyclopropylmethyl)-1H-pyrazol-4-ylamino]-pyridin-4-yl}-2-(tetrahydropyran-4-yloxy)benzonitrile]?
**A.** IC50 [1]: 18 nM; IC50 [2]: 27 nM

**Q.** Which results are given for `N#Cc1cc(-c2ccnc(Nc3ncccn3)c2)ccc1OC1CCOCC1` [Compound A14, 5-[2-(Pyrimidin-2-ylamino)pyridin-4-yl]-2-(tetrahydropyran-4-yloxy)benzonitrile]?
**A.** IC50 [1]: 670 nM; IC50 [2]: 1200 nM

**Q.** Which IC50 [1] does the source give for `N#Cc1cc(-c2ccnc(Nc3cnn(CC4CCOC4)c3)n2)ccc1OC1CCOCC1` (centres unmarked) [Compound A41, 5-{2-[1-(Tetrahydrofuran-3-ylmethyl)-1H-pyrazol-4-ylamino]pyrimidin-4-yl}-2-(tetrahydropyran-4-yloxy)benzonitrile] here?
**A.** 12 nM

**Q.** And the IC50 [2]?
**A.** 25 nM

**Q.** Which results are given for `N#Cc1cc(-c2ccnc(Nc3ccc(CN4CC5(COC5)C4)cn3)c2)ccc1OC1CCOCC1` [Compound A88, 5-{2-[5-(2-oxa-6-azaspiro[3.3]hept-6-ylmethyl)pyridin-2-yl-amino]pyridin-4-yl}-2-(tetrahydropyran-4-yloxy)benzonitrile]?
**A.** IC50 [1]: 41 nM; IC50 [2]: 45 nM

**Q.** With `N#Cc1cc(-c2ccnc(Nc3nc(C4CC4)cs3)n2)ccc1OC1CCOCC1` [Compound A87, 5-[2-(4-cyclopropylthiazol-2-ylamino)pyrimidin-4-yl]-2-(tetrahydropyran-4-yloxy)benzonitrile] as the compound, how does the IC50 [1] read?
**A.** 300 nM

**Q.** And the IC50 [2]?
**A.** 300 nM

**Q.** `CC(=O)N1CCC(COc2ccc(-c3ccnc(Nc4ccc(N5CCOCC5)cn4)c3)cc2C#N)CC1` [Compound A117, 2-(1-acetylpiperidin-4-ylmethoxy)-5-[2-(5-morpholin-4-ylpyridin-2-ylamino)pyridin-4-yl]benzonitrile] was tested. Which IC50 [1] did it give?
**A.** 810 nM

**Q.** And the IC50 [2]?
**A.** 610 nM

**Q.** Which IC50 [2] does the source give for `N#Cc1cc(-c2ccnc(Nc3ncc4c(n3)CCNC4)c2)ccc1OC1CCOCC1` [Compound A36, 2-(Tetrahydropyran-4-yloxy)-5-[2-(5,6,7,8-tetrahydropyrido[4,3-d]pyrimidin-2-ylamino)pyridin-4-yl]benzonitrile] here?
**A.** 140 nM

**Q.** For `N#Cc1cc(-c2ccnc(Nc3cnn(C4CCNC4)c3)n2)ccc1OC1CCOCC1` (centres unmarked) [Compound A40, 5-[2-(1-Pyrrolidin-3-yl-1H-pyrazol-4-ylamino)pyrimidin-4-yl]-2-(tetrahydropyran-4-yloxy)benzonitrile], which IC50 [1] is on record?
**A.** 7 nM

**Q.** What about the IC50 [2] of the same compound?
**A.** 5 nM

**Q.** `N#Cc1cc(-c2ccnc(Nc3cnn(CC4CCOC4)c3)c2)ccc1OC1CCOCC1` (centres unmarked) [Compound A27, 5-{2-[1-(Tetrahydrofuran-3-ylmethyl)-1H-pyrazol-4-ylamino]pyridin-4-yl}-2-(tetrahydropyran-4-yloxy)benzonitrile] was tested. Which IC50 [1] did it give?
**A.** 85 nM

**Q.** And the IC50 [2]?
**A.** 77 nM

**Q.** `N#Cc1cc(-c2ccnc(Nc3cnn(CCn4cccn4)c3)n2)ccc1OC1CCOCC1` [Compound A43, 5-{2-[1-(2-Pyrazol-1-ylethyl)-1H-pyrazol-4-ylamino]pyrimidin-4-yl}-2-(tetrahydropyran-4-yloxy)benzonitrile] was tested. Which IC50 [1] did it give?
**A.** 70 nM

**Q.** What about the IC50 [2] of the same compound?
**A.** 65 nM

**Q.** How did the IC50 [1] turn out when `N#Cc1cc(-c2ccnc(Nc3cncc(C4=CCCCO4)n3)c2)ccc1OC1CCOCC1` [Compound A92, 5-{2-[6-(5,6-dihydro-4H-pyran-2-yl)pyrazin-2-ylamino]pyridin-4-yl}-2-(tetrahydropyran-4-yloxy)benzonitrile] was run?
**A.** 850 nM

**Q.** What about the IC50 [2] of the same compound?
**A.** 930 nM

**Q.** Which results are given for `N#Cc1cc(-c2ccnc(Nc3ccc(C(N)=O)cn3)c2)ccc1OC1CCOCC1` [Compound A37, 6-{4-[3-Cyano-4-(tetrahydropyran-4-yloxy)phenyl]pyridin-2-ylamino}nicotinamide]?
**A.** IC50 [1]: 32 nM; IC50 [2]: 21 nM

**Q.** With `N#Cc1cc(-c2ccnc(Nc3ccc(C(F)(F)F)cn3)c2)ccc1OC1CCOCC1` [Compound A13, 2-(Tetrahydropyran-4-yloxy)-5-[2-(5-trifluoromethylpyridin-2-ylamino)pyridin-4-yl]-benzonitrile] as the compound, how does the IC50 [1] read?
**A.** 310 nM

**Q.** What about the IC50 [2] of the same compound?
**A.** 530 nM

**Q.** What does the source list for `N#Cc1cc(-c2ccnc(Nc3cc(C4=CCCCO4)ccn3)c2)ccc1OC1CCOCC1` [Compound A86, 5-{2-[4-(5,6-dihydro-4H-pyran-2-yl)pyridin-2-ylamino]pyridin-4-yl}-2-(tetrahydropyran-4-yloxy)benzonitrile]?
**A.** IC50 [1]: 290 nM; IC50 [2]: 300 nM
